Measured values taken from ChEMBL document CHEMBL4184157, “Phenoxypropanolamine derivatives as selective inhibitors of the 20S proteasome β1 and β5 subunits” (Bioorg Med Chem Lett, 2017).
pIC50: −log10 of the molar value. Activity calls are given as the source filed them. The calls are words filed in the database; no cut-off is given here.

Experiments:
[1] = Inhibition of caspase-like activity of rabbit erythrocyte 20S proteasome beta1 subunit using Z-LLE-betaNA as substrate preincubated for 15 mins followed by substrate addition measured after 45 mins by fluorescence assay; set-up: species or system Oryctolagus cuniculus
[2] = Inhibition of chymotrypsin-like activity of rabbit erythrocyte 20S proteasome beta5 subunit using Suc-LLVY-AMC as substrate preincubated for 15 mins followed by substrate addition measured after 45 mins by fluorescence assay; set-up: species or system Oryctolagus cuniculus
Oryctolagus cuniculus [3] = species on record: Oryctolagus cuniculus; test: Inhibition of trypsin-like activity of rabbit erythrocyte 20S proteasome beta2 subunit at 100 uM using BocLRR-AMC as substrate preincubated for 5 mins followed by substrate addition measured after 45 mins by fluorescence assay
Oryctolagus cuniculus [4] = species on record: Oryctolagus cuniculus; test: Inhibition of caspase-like activity of rabbit erythrocyte 20S proteasome beta1 subunit at 100 uM using Z-LLE-betaNA as substrate preincubated for 15 mins followed by substrate addition measured after 45 mins by fluorescence assay
Oryctolagus cuniculus [5] = species on record: Oryctolagus cuniculus; test: Inhibition of chymotrypsin-like activity of rabbit erythrocyte 20S proteasome beta5 subunit at 100 uM using Suc-LLVY-AMC as substrate preincubated for 15 mins followed by substrate addition measured after 45 mins by fluorescence assay
[6] = target: T1, Calpain-1 catalytic subunit (Homo sapiens) (UniProt P07384); test: Inhibition of human erythrocyte calpain 1 protease using Suc-LLVY-AMC as substrate by fluorescence assay
T1 sequence (whole entry): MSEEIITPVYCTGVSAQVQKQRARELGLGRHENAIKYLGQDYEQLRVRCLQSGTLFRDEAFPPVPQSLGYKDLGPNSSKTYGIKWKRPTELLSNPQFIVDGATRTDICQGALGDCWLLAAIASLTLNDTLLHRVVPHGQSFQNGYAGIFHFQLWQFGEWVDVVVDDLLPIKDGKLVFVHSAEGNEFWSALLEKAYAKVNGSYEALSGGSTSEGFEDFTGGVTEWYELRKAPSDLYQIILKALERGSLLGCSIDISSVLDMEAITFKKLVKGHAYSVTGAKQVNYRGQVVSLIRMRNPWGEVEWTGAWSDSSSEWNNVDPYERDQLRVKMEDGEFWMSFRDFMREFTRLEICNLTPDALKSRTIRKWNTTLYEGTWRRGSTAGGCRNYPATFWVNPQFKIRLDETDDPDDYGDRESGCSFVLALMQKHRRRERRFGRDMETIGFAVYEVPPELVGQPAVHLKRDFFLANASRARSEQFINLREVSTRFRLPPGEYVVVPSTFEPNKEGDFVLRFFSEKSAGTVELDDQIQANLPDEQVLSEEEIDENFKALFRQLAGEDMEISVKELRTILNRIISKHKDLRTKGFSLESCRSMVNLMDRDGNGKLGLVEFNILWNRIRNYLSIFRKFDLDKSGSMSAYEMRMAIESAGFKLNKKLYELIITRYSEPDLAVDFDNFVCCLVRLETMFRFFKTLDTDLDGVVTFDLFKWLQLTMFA

[7] = target: Cathepsin B (Homo sapiens) (UniProt P07858); test: Inhibition of human hepatocyte cathepsin B protease using Z-RR-AMC as substrate by fluorescence assay
Rattus norvegicus [8] = test: In vivo antiproliferative activity against Wistar rat bone marrow cells from femora assessed as inhibition of cell division measured by counting metaphase plates administered at 2 mg per rat, ip by light microscopic method; set-up: scale not given: the % may be the effect or the level left
Rattus norvegicus [9] = test: In vivo antiproliferative activity against Wistar rat bone marrow cells from femora assessed as inhibition of cell division measured by counting metaphase plates administered at 0.2 mg per rat, ip by light microscopic method; set-up: scale not given: the % may be the effect or the level left
HeLa [10] = test: Antiproliferative activity against human HeLa cells after 72 hrs by XTT assay; format: functional, cell-based
HeLa [11] = test: Antiproliferative activity against human HeLa cells at 10 uM after 72 hrs by microscopic method; format: functional, cell-based
Rattus norvegicus [12] = test: In vivo antiproliferative activity against ip dosed Wistar rat bone marrow cells from femora assessed as inhibition of cell division measured by counting metaphase plates by light microscopic method; format: functional, organism-based
HeLa [13] = test: Antiproliferative activity against human HeLa cells assessed as fragmented nuclei at 50 uM after 72 hrs by microscopic method; format: functional, cell-based
HeLa [14] = test: Cytotoxicity against human HeLa cells at 10 uM after 72 hrs by XTT assay; format: functional, cell-based

Compound	pIC50 [1]	pIC50 [2]	inhibition (Oryctolagus cuniculus [3])	inhibition (Oryctolagus cuniculus [4])	other results
COc1ccccc1OCC(O)CNCC1(c2cccs2)CCCC1 (stereo not drawn)	4.44	4.43	48%	–	–
Cc1ccc(OCC(O)CNCC2(c3cccs3)CCCC2)cc1 (stereo not drawn)	4.62	4.81	38%	–	–
COc1ccccc1OCC(O)CNCC1(c2cccs2)CCOCC1 (stereo not drawn)	–	–	inactive	inactive	inhibition (Oryctolagus cuniculus [5]): inactive
Cc1ccc(OCC(O)CNCC2(c3cccs3)CCOCC2)cc1 (stereo not drawn)	–	4.10	49%	inactive	–
OC(CNCC1(c2cccs2)CCCCC1)COc1ccccc1 (stereo not drawn)	4.74	4.83	inactive	–	–
NCC1(c2cccs2)CCCC1	–	–	inactive	inactive	inhibition (Oryctolagus cuniculus [5]): 26%
NCC1(c2cccs2)CCOCC1	–	–	inactive	inactive	inhibition (Oryctolagus cuniculus [5]): inactive
OC(CNCC1(c2cccs2)CCCC1)COc1ccccc1 (stereo not drawn)	4.18	4.71	41%	–	inhibition [6]: inactive; inhibition [7]: inactive
CC1(C)OC(=O)c2c1ccn(CCc1ccccc1)c2=O	4.32	–	–	–	–
OC(CNCC1(c2cccs2)CCOCC1)COc1ccccc1 (stereo not drawn)	–	–	39%	36%	inhibition (Oryctolagus cuniculus [5]): 31%
O=C(O)CSc1cc(NS(=O)(=O)c2cccs2)c2ccccc2c1O	–	5.52	–	–	–
Cc1ccc(OCC(O)CNCC2(c3cccs3)CCCCC2)cc1 (stereo not drawn)	4.52	4.81	36%	–	–
OC(CNCC1(c2cccs2)CCCC1)COc1ccc(Cl)cc1 (stereo not drawn)	4.74	4.80	42%	–	Activity (Rattus norvegicus [8]): 75%; Activity (Rattus norvegicus [9]): 50%; inhibition [6]: inactive; Activity (HeLa [10]): Dose-dependent effect; Activity (HeLa [11]): inactive; Activity (Rattus norvegicus [12]): Dose-dependent effect; Activity (HeLa [13]): Active; inhibition [7]: inactive; Activity (HeLa [14]): inactive
NCC1(c2cccs2)CCCCC1	–	–	inactive	inactive	inhibition (Oryctolagus cuniculus [5]): inactive
COc1ccccc1OCC(O)CNCC1(c2cccs2)CCCCC1 (stereo not drawn)	4.66	4.77	40%	–	–
OC(CNCC1(c2cccs2)CCCCC1)COc1ccc(Cl)cc1 (stereo not drawn)	4.89	4.74	inactive	–	–
OC(CNCC1(c2cccs2)CCOCC1)COc1ccc(Cl)cc1 (stereo not drawn)	–	4.40	53%	inactive	–
